Test results published in patent publication US5314999A, “Derivatives of basic polyene macrolides and their preparation” (Laboratoires Mayoly-Spindler, priority 1989, dated 1994).
In brackets after ≈: the same amount, converted by molar mass.

Test: Solubility of the AmB derivatives
Format: physicochemical
Settings: 5% glucose solution, ambient temperature, up to saturation; read-out: solubility (soluble up to a concentration of)
Description: C.2. Solubility of the AmB derivatives according to the present invention
AmB or the derivatives obtained are dissolved at ambient temperature in a 5% glucose solution up to saturation.
Compound `C[C@@H]1[C@H](O)[C@@H](C)/C=C/C=C/C=C/C=C/C=C/C=C/C=C/[C@H](O[C@@H]2O[C@H](C)[C@@H](O)[C@H](NCC3(O)O[C@H](C(=O)O)[C@@H](O)[C@@H]3O)[C@@H]2O)C[C@@H]2O[C@](O)(C[C@@H](O)C[C@@H](O)[C@H](O)CC[C@@H](O)C[C@@H](O)CC(=O)O[C@H]1C)C[C@H](O)[C@H]2C(=O)O` (stereo partly drawn) [AmB 17, 1-amino-1-deoxy-D-arabinoglucuronyl-AmB] has a solubility of 20 mg/mL (≈ 18.2 mM). In the case of `C[C@@H]1[C@H](O)[C@@H](C)/C=C/C=C/C=C/C=C/C=C/C=C/C=C/[C@H](O[C@@H]2O[C@H](C)[C@@H](O)[C@H](NCC(=O)[C@@H](O)[C@@H]3OC(c4ccccc4)OC[C@H]3O)[C@@H]2O)C[C@@H]2O[C@](O)(C[C@@H](O)C[C@@H](O)[C@H](O)CC[C@@H](O)C[C@@H](O)CC(=O)O[C@H]1C)C[C@H](O)[C@H]2C(=O)O` (stereo partly drawn) [AmB 20, 1-deoxy-1-amino-4,6-O-benzylidene-D-fructosyl-AmB], the solubility is reported as 40 mg/mL (≈ 34.1 mM). `C[C@@H]1[C@H](O)[C@@H](C)/C=C/C=C/C=C/C=C/C=C/C=C/C=C/[C@H](O[C@@H]2O[C@H](C)[C@@H](O)[C@H](NCC3(O)O[C@H](C(N)=O)[C@@H](O)[C@@H]3O)[C@@H]2O)C[C@@H]2O[C@](O)(C[C@@H](O)C[C@@H](O)[C@H](O)CC[C@@H](O)C[C@@H](O)CC(=O)O[C@H]1C)C[C@H](O)[C@H]2C(=O)O` (stereo partly drawn) [AmB 12, 1-amino-1-deoxy-D-arabinoglucuronamidyl-AmB] gave a solubility of 150 mg/mL (≈ 136 mM).
